Consider 53 compounds from PubChem BioAssay AID1996.

In brackets after ≈: the same amount, converted by molar mass.

The conditions of this data set: buffer; pH 7.4; 200.0 µM.
One may read the kinetic solubility as solubility judged after dilution from a stock solution rather than from solid. `CC(C)c1nc(NCCO)c(C#N)c2c1CCCC2` showed a solubility (kinetic) of 9 µg/mL (≈ 34.7 µM).
The result for `C=CCNC(=O)C(=O)NCC1CCCN1CC` (stereo not drawn) reads above 35.9 µg/mL; that for `COc1ccccc1NC(=O)c1ccc(-c2ccccc2[N+](=O)[O-])o1`, 1.6 µg/mL (≈ 4.73 µM); that for `COc1cccc2cc(-c3nc4ccccc4[nH]3)c(=O)oc12`, below 0.3 µg/mL.
In turn, `Cc1csc(NC(=O)Cc2ccc(Br)cc2)n1` gave a solubility (kinetic) of 36.5 µg/mL (≈ 117 µM).
In the case of `CCCn1c(O)c(N=N)c2ccccc21`, the solubility (kinetic) is above 30.5 µg/mL.
`O=C(Nc1cc(Cl)ccc1Cl)c1ccco1` registered a kinetic solubility of 7.6 µg/mL (≈ 29.7 µM).
In turn, `CCNc1nc(NCc2ccccc2)nc(SCC(N)=O)n1` showed a kinetic solubility of 42.2 µg/mL (≈ 133 µM).
The result for `COc1ccc(NC(=O)COC(=O)CCC2CCCCC2)cc1` reads 19.4 µg/mL (≈ 60.7 µM); that for `COc1cccc(NC(=O)CN2C(=O)NC(C)(CC(C)C)C2=O)c1` (stereo not drawn), above 50 µg/mL; that for `O=C(Nc1cccc(S(=O)(=O)N2CCCC2)c1)c1cccnc1`, 37.7 µg/mL (≈ 114 µM).
On to `O=c1[nH]c2ccccc2[n+]([O-])c1-c1ccccc1`, for which the kinetic solubility was above 35.7 µg/mL.
The result for `C=CCOc1ccccc1CNCc1ccc(F)cc1.Cl` reads above 46.2 µg/mL; that for `O=C(CNC(=O)C1CCCCC1)OCC(=O)c1ccc(Br)cc1`, 27.6 µg/mL (≈ 72.2 µM); that for `COc1ccc(C(=O)NCc2ccc3c(c2)OCO3)c(OC)c1`, above 47.3 µg/mL.
For the compound `O=C(CCCc1ccccc1)NC12CC3CC(CC(C3)C1)C2`, the solubility (kinetic) turned out to be 11 µg/mL (≈ 37 µM).
The result for `Cc1ccc(S(=O)(=O)NCCCN2CCCC2)cc1` reads above 42.4 µg/mL; that for `CC1CCCC(NC(=O)COC(=O)Cc2ccc(Cl)cc2)C1C` (stereo not drawn), 27.3 µg/mL (≈ 80.8 µM).
The result for `CC(OC(=O)c1ccco1)C(=O)Nc1nc(-c2ccccc2)cs1` (stereo not drawn) reads 4.5 µg/mL (≈ 13.1 µM); that for `Oc1[nH]c2ccccc2c1C=Nc1ccccc1`, 0.7 µg/mL (≈ 2.96 µM); that for `CCc1cnccc1CCC(=O)Nc1ccccc1C`, 35.4 µg/mL (≈ 132 µM).
The result for `Cc1nc2ccccn2c(=O)c1NC(=O)c1cccs1` reads above 42.8 µg/mL; that for `Cc1ccccc1N1CCN(Cc2ccc(Br)o2)CC1`, 4.3 µg/mL (≈ 12.8 µM); that for `Cc1c(C(=O)NC2CCCCC2)oc2ccc(F)cc12`, 2.8 µg/mL (≈ 10.2 µM).
Compound `COCCn1c(C(C)C)nc2ccccc21` displayed a kinetic solubility above 32.7 µg/mL.
The result for `CCOC(=O)CNC(=O)CN1CCC(c2nc3ccccc3[nH]2)CC1` reads above 51.7 µg/mL; that for `O=C(Nc1cc(C(F)(F)F)ccc1N1CCOCC1)C1CCCO1` (stereo not drawn), above 51.6 µg/mL.
The value for `O=C(NC(=S)N1CCN(C/C=C/c2ccccc2)CC1)c1ccco1` was above 53.3 µg/mL; that for `CN(C(=S)NC(=O)c1ccc(F)cc1)C1CCCCC1` was 8.8 µg/mL (≈ 29.9 µM).
As for `CC(=O)Nc1ccc(S(=O)(=O)Nc2ccc3c(c2)OCO3)cc1`, the kinetic solubility was above 50.2 µg/mL.
The value for `CC(C)C(=O)Nc1ccc(N2CCCC2)c(Cl)c1` was 10.4 µg/mL (≈ 39 µM).
Compound `O=C(CN1C(=O)NC2(CCCC2)C1=O)Nc1cc(C(F)(F)F)ccc1N1CCOCC1` had a kinetic solubility of 5.2 µg/mL (≈ 11.8 µM).
`O=C(COC(=O)c1ccccc1F)NCc1ccc2c(c1)OCO2` returned a solubility (kinetic) of 18.1 µg/mL (≈ 54.6 µM). Compared with the last compound, the solubility kinetic is about 3.5-fold higher.
`CN(C)/C=C1/OC(=O)C(C#N)=C1c1ccc(Cl)cc1` yielded a kinetic solubility of 2.4 µg/mL (≈ 8.74 µM).
The value for `O=c1[nH]cnc2ncc(-c3ccc(O)cc3)nc12` was above 36 µg/mL; that for `CN(C)/C=C/C(=O)c1ccn(S(=O)(=O)c2ccccc2)c1` was above 45.7 µg/mL; that for `CCc1ccccc1N1C(=O)C2C3C=CC(CC3)C2C1=O` (stereo not drawn) was above 42.2 µg/mL.
On to `Cc1csc(NC(=O)c2ccc[nH]c2=O)n1`, for which the solubility (kinetic) was above 35.3 µg/mL.
The value for `O=C(Cc1ccccc1)Nc1cccc(NC(=O)c2ccccc2)c1` was 1.5 µg/mL (≈ 4.54 µM); that for `CC(=O)Nc1ccc(NC=C(C#N)C#N)cc1` was 4.2 µg/mL (≈ 18.6 µM).
For `O=C(NNC(=S)NC1CC2C=CC1C2)c1cccnc1` (stereo not drawn), the kinetic solubility is above 43.3 µg/mL.
`O=C(O)c1ccc(N2C(=O)CCCC2=O)cc1` yielded a solubility (kinetic) of 25.9 µg/mL (≈ 111 µM).
The value for `Cc1cc(C)c(C#N)c(Nc2ccccc2F)n1` was 5.1 µg/mL (≈ 21.1 µM); that for `CCOC(=O)N1CCN(CCc2ccccc2)CC1` was 30.6 µg/mL (≈ 117 µM); that for `Cc1cc2c(cc1C)C(c1ccsc1)CC(=O)N2` (stereo not drawn) was 5.1 µg/mL (≈ 19.8 µM).
The compound `Cc1ccccc1CNS(=O)(=O)c1csc(C(N)=O)c1` returned a kinetic solubility above 46.6 µg/mL.
The value for `CCc1ccccc1NC(=O)COC(=O)c1cccs1` was 2.9 µg/mL (≈ 10 µM).
Take `COc1ccc(Br)cc1CNCCc1ccc2c(c1)OCO2`: the kinetic solubility amounted to 52.3 µg/mL (≈ 144 µM). This solubility kinetic lies about 18-fold higher than the previous one.
Take `O=S1(=O)N=C2CCCCCN2C(c2ccc(F)cc2)N1` (stereo not drawn): the kinetic solubility is above 44.6 µg/mL.
`COC(=O)c1cc(N=C(N)N=C(N)N)cc(C(=O)OC)c1` had a solubility (kinetic) above 44 µg/mL.
Consider `O=C(Nc1cccc(NC(=O)c2ccco2)n1)c1ccco1`, for which the solubility (kinetic) amounted to 6.1 µg/mL (≈ 20.5 µM).
The value for `Cc1ccc(C(=O)COC(=O)c2cc(=O)[nH]c3ccccc23)cc1` was 1.1 µg/mL (≈ 3.42 µM); that for `Cc1ccccc1NC(=S)N(Cc1ccccc1)Cc1cccs1` was 0.7 µg/mL (≈ 1.99 µM).
